Test results: patent US6235736A, “3-anilino-2-cycloalkenone derivatives” (Nikken Chemicals Co., Ltd., priority 1997, dated 2001)

What was measured:
Type IV PDE = assay: PDE IV inhibitory activity (isozyme partially purified from rat neutrophils, 3H-cAMP substrate); type: biochemical; settings: rat neutrophil PDE IV, 30° C., 30 minutes, read-out: PDE IV inhibiting action IC50
Protocol: Type I, III, IV, and V PDE isozymes were prepared to study the PDE inhibitory activities of and selectivities with the compound of the invention [Trends Pharmacol Sci., 12, 19-27 (1991)]. Type I PDE was purchased from Sigma Corp. Type III, IV, and V PDE isozymes were partially purified from platelets (Type III and V) or neutrophils (Type IV) collected from rats. Each enzyme source was homogenized in a buffer (pH 6.5) containing 20 mM bisTris, 2 mM EDTA (i.e., ethlenediamine tetraacetate), 2-mercaptoethanol, 0.001 mM pepstatin and 0.01 mM leupeptin and was centrifuged at 30000×G for 30 minutes to obtain a supernatant, which was applied to an ion exchange column (Q-sepharose first flow, Pharmacia Corp.) and was eluted with 0 to 1M sodium acetate. Partially purified isozymes were identified by observing the inhibitory effects of conventional inhibitors.
Each PDE isozyme and the test compound dissolved in DMSO (i.e., dimethylsulfoxide) were added to 50 mM Tris--HCI buffer containing 5 mM magnesium chloride. ^3 H-cAMP (for type III and IV PDE) or ^3 H-cGMP (for type I and V PDE) were added as substrates and were reacted at 30° C. for 30 minutes. The reaction was terminated by placing the test tube in boiling water of 100° C. for 5 minutes. The nucleotides formed by PDE were broken down to ^3 H-adenosine or ^3 H-guanosine by 5'-nucleotidase. The substrate and reaction product were separated through an ion-exchange column (i.e., QAE sephadex, Pharmacia Corp.)
The eluted ^3 -H-nucleoside was measured for its radioactivity by a liquid scintillation counter. The inhibitory activities of the compound of the present invention are shown by the IC50 value (M). Further, the inhibitory activities of the test samples against type I, III, and V PDE are 1/10 or less than that against Type IV PDE.

[1] = test system: TPA induced ear edema in mouse; assay: TPA induced mouse ear edema assay; type: in vivo, mouse (male ICR); settings: 0.1 mg applied to right ear immediately after TPA; 6 hour
Protocol: Male ICR mice, 5 week old, were divided into groups of seven to eight. 2 μg of TPA (phorbor 12-ministate; Sigma Co.) in 20 μl acetone was applied to the inner and outer surface of right ear of each mouse to cause a reaction. 0.1 mg of compound was dissolved in 20 μl of a tetrahydrofuran-methanol mixture (mixture ratio 1:1) and the solution (20 μl) applied to the right ear immediately after TPA treatment. After 6 hour, the animals were sacrificed and right ear was punched out (.phi. […]) and weighed. The effect of comppund.was calculated as % inhibition as follows: [formula]

| Compound | IC50 (Type IV PDE) [nM] | % Inhibition of ear edema [1] [%] |
| --- | --- | --- |
| COc1ccc(N(Cc2ccccc2)C2=CC(=O)CC2)cc1OC1CCCC1 [Compound No. 30, 3-(N-benzyl-3-cyclopentyloxy-4-methoxyanilino)-2-cyclopenten-1-one] | 2600 | 78.4 |
| COc1ccc(NC2=CC(=O)CC2)cc1OCC1CCC1 [Compound No. 51, 3-(3-cyclobutylmethoxy-4-methoxyanilino)-2-cyclopenten-1-one] | 1900 |  |
| COc1ccc(N(C)C2=C(C)C(=O)CC2)cc1OC1CCCC1 [Compound No. 70, 3-(3-cyclopentyloxy-4-methoxy-N-methylanilino)-2-methyl-2-cyclopenten-1-one] | 3100 |  |
| COc1ccc(NC2=CC(=O)CC2)cc1OCCc1ccccc1 [Compound No. 11, 3-(4-methoxy-3-phenethyloxyanilino)-2-cyclopenten-1-one] | 4000 |  |
| COc1ccc(NC2=CC(=O)CCC2)cc1OCc1ccccc1 [Compound No. 20, 3-(3-benzyloxy-4-methoxyanilino)-2-cyclohexen-1-one] | 44000 |  |
| COc1ccc(N(Cc2ccc3ccccc3c2)C2=CC(=O)CC2)cc1OC1CCCC1 [Compound No. 62, 3-[3-cyclopentyloxy-4-methoxy-N-(2-naphthylmethyl)anilino]-2-cyclopenten-1-one] | 1200 | 78.8 |
| COc1ccc(N(Cc2ccc3ccccc3c2)C2=C(C)C(=O)CC2)cc1OC1Cc2ccccc2C1 [Compound No. 74, 3-[3-(2-indanyloxy)-4-methoxy-N-(2-naphthylmethyl)anilino]-2-methyl-2-cyclopenten-1-one] | 3500 |  |
| COc1ccc(NC2=C(CN(C)C)C(=O)CC2)cc1OC1CCCC1 [Compound No. 24, 3-(3-cyclopentyloxy-4-methoxyanilino)-2-dimethylaminomethyl-2-cyclopenten-1-one] | 61000 |  |
| COc1ccc(N(C(C)=O)C2=CC(=O)CC2)cc1OC1CCCC1 [Compound No. 29, 3-(N-acetyl-3-cyclopentyloxy-4-methoxyanilino)-2-cyclopenten-1-one] | 48000 |  |
| COc1ccc(NC2=C(C)C(=O)CC2)cc1OCCc1cccc2ccccc12 [Compound No. 43, 3-[4-methoxy-3-[2-(1-naphthyl)ethoxy]anilino]-2-methyl-2-cyclopenten-1-one] | 1300 |  |
| CCCCOc1cc(NC2=C(C)C(=O)CC2)ccc1OC [Compound No. 18, 3-(3-butoxy-4-methoxyanilino)-2-methyl-2-cyclopenten-1-one] | 1700 |  |
| COc1ccc(N(Cc2ccc3ccccc3n2)C2=C(C)C(=O)CC2)cc1OC1CCCC1 [Compound No. 72, 3-[3-cyclopentyloxy-4-methoxy-N-(2-quinolylemethyl)anilino]-2-methyl-2-cyclopenten-1-one] | 3000 |  |
| COc1ccc(NC2=CC(=O)CC2)cc1OCCc1cccc2ccccc12 [compound 42, 3-[4-methoxy-3-[2-(1-naphthyl)ethoxy]anilino]-2-cyclopenten-1-one] | 9600 |  |
| COc1ccc(NC2=CC(=O)CC(C)(C)C2)cc1OC1CCCC1 [Compound No. 3, 3-(3-cycloientyloxy-4-methoxyanilino)-5,5-dimethyl-2-cyclohexen-1-one] | 4900 |  |
| COc1ccc(N(Cc2ccccc2)C2=C(C)C(=O)CC2)cc1OC1CCCC1 [Compound No. 71, 3-(N-benzyl-3-cyclopentyloxy-4-methoxyanilino)-2-methyl-2-cyclopenten-1-one] | 8200 |  |
| COc1ccc(NC2=CC(=O)CC2)cc1OCCC1Cc2ccccc2C1 [Compound No. 34, 3-[3-[2-(2-indanyl)ethoxy]-4-methoxyanilino]-2-cyclopenten-1-one] | 1800 |  |
| COc1ccc(NC2=CC(=O)CC2)cc1OCC1CC1 [Compound No. 15, 3-(3-cyclopropylmethoxy-4-methoxyanilino)-2-cyclopenten-1-one] | 7100 |  |
| COc1ccc(NC2=C(CN3CCOCC3)C(=O)CC2)cc1OC1CCCC1 [Compound No. 25, 3-(3-cyclopentyloxy-4-methoxyanilino)-2-(4-morpholinomethyl)-2-cyclopenten-1-one] | 17000 |  |
| COc1ccc(NC2=CC(=O)CC2)cc1OCC1CCCC1 [Compound No. 40, 3-(3-cyclopentylmethoxy-4-methoxyanilino)-2-cyclopenten-1-one] | 4000 |  |
| COc1ccc(NC2=CC(=O)C(C)(C)CC2)cc1OC1CCCC1 [Compound No. 38, 3-(3-cyclopentyloxy-4-methoxyanilino)-6,6-dimethyl-2-cyclohexen-1-one] | 17000 |  |
| COc1ccc(NC2=CC(=O)CC2)cc1OC1CCOC1 (centres unmarked) [Compound No. 36, 3-[4-methoxy-3-(3-2,3,4,5-tetrahydrofuranyloxy)anilino]-2-cyclopenten-1-one] | 8900 |  |
| COc1ccc(NC2=CC(=O)CC(c3ccccc3)C2)cc1OC1CCCC1 (centres unmarked) [Compound No. 39, 3-(3-cyclopentyloxy-4-methoxyanilino)-5-phenyl-2-cyclohexen-1-one] | 3900 |  |
| COc1ccc(NC2=CC(=O)CC(C)C2)cc1OC1CCCC1 (centres unmarked) [Compound No. 5, 3-(3-cycloientyloxy-4-methoxyanilino)-5-methyl-2-cyclohexen-1-one] | 2200 |  |

Second part, led by results:

| IC50 (Type IV PDE) [nM] | Compound | % Inhibition of ear edema [1] [%] |
| --- | --- | --- |
| 220 | COc1ccc(NC2=C(C)C(=O)CC2)cc1O[C@@H]1C[C@H]2CC[C@@H]1C2 (racemic) [Compound No. 44, 3-[3-[(1RS,2RS,4SR)-bicyclo[2.2. 1]hept-2-yloxy]-4-methoxyanilino]-2-methyl-2-cyclopenten-1-one] | 74.1 |
| 290 | COc1ccc(N(C)C2=CC(=O)CCC2)cc1OC1Cc2ccccc2C1 [Compound No. 65, 3-[3-(2-indanyloxy)-4-methoxy-N-methylanilino]-2-cyclohexen-1-one] | 52.5 |
| 80 | CCC1=C(Nc2ccc(OC)c(O[C@@H]3C[C@H]4CC[C@@H]3C4)c2)CCC1=O (racemic) [Compound No. 45, 3-[3-[(1RS,2RS,4SR)-bicyclo[2.2. 1]hept-2-yloxy]-4-methoxyanilino]-2-ethyl-2-cyclopenten-1-one] | 75.3 |
| 400 | COc1ccc(NC2=C(Cc3ccccc3)C(=O)CC2)cc1OC1CCCC1 [Compound No. 33, 2-benzyl-3-(3-cyclopentyloxy-4-methoxyanilino)-2-cyclopenten-1-one] | 81.7 |
| 390 | COc1ccc(NC2=C(C)C(=O)CC2)cc1OC1CCCC1 [Compound No. 4, 3-(3-cyclopentyloxy-4-methoxyanilino)-2-methyl-2-cyclopenten-1-one] |  |
| 220 | CCC1=C(Nc2ccc(OC)c(OC3CCCC3)c2)CCC1=O [Compound No. 31, 3-(3-cyclopentyloxy-4-methoxyanilino)-2-ethyl-2-cyclopenten-1-one] | 73.4 |
| 1200 | COc1ccc(NC2=C(C)C(=O)CC2)cc1OC1CCOC1 (centres unmarked) [Compound No. 37, 3-[4-methoxy-3-(3-2,3,4,5-tetrahydrofuranyloxy)anilino]-2-methyl-2-cyclopenten-1-one] | 51.8 |
| 550 | COc1ccc(NC2=C(C)C(=O)CC2)cc1OCC1CCC1 [Compound No. 52, 3-(3-cyclobutylmethoxy-4-methoxyanilino)-2-methyl-2-cyclopenten-1-one] |  |
| 540 | COc1ccc(NC2=C(Cl)C(=O)CC2)cc1OC1CCCC1 [Compound No. 6, 2-chloro-3-(3-cyclopentyloxy-4-methoxyanilino)-2-cyclopenten-1-one] |  |
| 940 | COc1ccc(NC2=C(C)C(=O)CC2)cc1OCC1CCCC1 [Compound No. 41, 3-(3-cyclopentylmethoxy-4-methoxyanilino)-2-methyl-2-cyclopenten-1-one] |  |
| 1100 | COc1ccc(NC2=C(Cc3ccccc3)C(=O)CCC2)cc1OC1CCCC1 [Compound No. 69, 2-benzyl-3-(3-cyclopentyloxy-4-methoxyanilino)-2-cyclohexen-1-one] |  |
| 730 | COc1ccc(NC2=C(C)C(=O)CCC2)cc1OCC1CCCC1 [Compound No. 54, 3-(3-cyclopentylmethoxy-4-methoxyanilino)-2-methyl-2-cyclohexen-1-one] |  |
| 260 | COc1ccc(NC2=C(C)C(=O)CCC2)cc1O[C@@H]1C[C@H]2CC[C@@H]1C2 (racemic) [Compound No. 46, 3-[3-[(1RS,2RS,4SR)-bicyclo[2.2. 1]hept-2-yloxy]-4-methoxyanilino]-2-methyl-2-cyclohexen-1-one] |  |
